Test results from ChEMBL document CHEMBL1201862, “PubChem BioAssay data set” (2004).
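All cell lines were grown in 96-well plates and treated with compound for 48 hours. The concentration for 50% growth inhibition is given as GI50.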 The source made the active and inactive calls. Cut-off read from the data, not from the text of the source: active = GI50 up to about 1.1 µM and inactive = higher.

What was measured:
Test in all cases: NCI tumour cell line growth inhibition, 48 h
OVCAR-8 = test system: OVCAR-8
NCI-H226 = test system: NCI-H226
EKVX = test system: EKVX
MDA-N = test system: MDA-N
SR = test system: SR
HL-60 = test system: HL-60
DU-145 = test system: DU-145
IGROV-1 = test system: IGROV-1
U-251 = test system: U-251
CCRF-CEM = test system: CCRF-CEM
SF-268 = test system: SF-268
MDA-MB-231 = test system: MDA-MB-231
786-0 = test system: 786-0
SK-MEL-28 = test system: SK-MEL-28
SN12C = test system: SN12C
SNB-75 = test system: SNB-75
UO-31 = test system: UO-31
SF-539 = test system: SF-539
HCC 2998 = test system: HCC 2998

Measured: GI50

NC(Cc1c[nH]c2ccc([N+](=O)[O-])cc12)C(=O)O (stereo not given)
inactive: OVCAR-8 > 100 µM | NCI-H226 > 100 µM | EKVX > 100 µM | MDA-N > 100 µM | SR > 100 µM | HL-60 > 100 µM | DU-145 > 100 µM | IGROV-1 > 100 µM | U-251 > 100 µM | CCRF-CEM > 100 µM | SF-268 > 100 µM | MDA-MB-231 > 100 µM | 786-0 > 100 µM | SK-MEL-28 > 100 µM | SN12C > 100 µM | SNB-75 > 100 µM | UO-31 > 100 µM

Cn1c(=O)c2nc(CSCc3ccccc3)[nH]c2n(C)c1=O
inactive: OVCAR-8 > 100 µM | NCI-H226 > 100 µM | EKVX 24.8 µM | MDA-N > 100 µM | SR > 100 µM | DU-145 > 100 µM | IGROV-1 > 100 µM | U-251 > 100 µM | SF-539 > 100 µM | SF-268 > 100 µM | MDA-MB-231 > 100 µM | 786-0 > 100 µM | SK-MEL-28 > 100 µM | SN12C 80.5 µM | SNB-75 > 100 µM | UO-31 41.1 µM

CC(C)c1cc(CN(C)C)c(O)c(C(C)(C)C)c1
inactive: OVCAR-8 30.3 µM | NCI-H226 21.5 µM | EKVX 28.7 µM | MDA-N 26.6 µM | HL-60 6.04 µM | HCC 2998 16.1 µM | DU-145 36.4 µM | IGROV-1 47.1 µM | U-251 16.4 µM | CCRF-CEM 16.4 µM | SF-268 22 µM | MDA-MB-231 36.2 µM | 786-0 18.5 µM | SK-MEL-28 28.1 µM | SN12C 18.9 µM | UO-31 23.1 µM

Cc1cnc2ccc(C)c([N+](=O)[O-])c2c1NCCCN(C)C
inactive: OVCAR-8 > 100 µM | NCI-H226 50 µM | EKVX > 100 µM | SR > 100 µM | HL-60 > 100 µM | HCC 2998 > 100 µM | U-251 > 100 µM | CCRF-CEM > 100 µM | SF-539 > 100 µM | SF-268 > 100 µM | 786-0 > 100 µM | SK-MEL-28 > 100 µM | SN12C > 100 µM | UO-31 27.2 µM

CCSc1nc2sc(C)c(C)c2c(=O)n1-c1ccc(C(=O)O)cc1
inactive: OVCAR-8 72.4 µM | NCI-H226 19.8 µM | EKVX 54 µM | SR 41.4 µM | HL-60 35.3 µM | HCC 2998 85.1 µM | IGROV-1 90.8 µM | U-251 55.5 µM | CCRF-CEM 52.5 µM | SF-539 18.8 µM | SF-268 27.2 µM | 786-0 > 100 µM | SK-MEL-28 54.5 µM | SN12C 55.1 µM | SNB-75 13.6 µM | UO-31 25.1 µM

O=CN1CCN(C(=O)c2cc(Cl)cc(Cl)c2)C1=S
inactive: OVCAR-8 19.1 µM | NCI-H226 14.7 µM | EKVX 17.9 µM | MDA-N 18.8 µM | HL-60 10.3 µM | HCC 2998 17.6 µM | DU-145 16.8 µM | IGROV-1 18.5 µM | U-251 17 µM | CCRF-CEM 5.38 µM | SF-539 20.2 µM | SF-268 16.1 µM | MDA-MB-231 15.6 µM | 786-0 4.71 µM | SK-MEL-28 18.4 µM | SN12C 15.6 µM | SNB-75 13.3 µM

O=C(O)CSC(NC(=O)C(C(F)(F)F)C(F)(F)F)(C(F)(F)F)C(F)(F)F
inactive: OVCAR-8 23.2 µM | EKVX > 100 µM | MDA-N > 100 µM | SR > 100 µM | HL-60 > 100 µM | HCC 2998 > 100 µM | IGROV-1 > 100 µM | U-251 > 100 µM | CCRF-CEM > 100 µM | SF-539 > 100 µM | SF-268 > 100 µM | 786-0 > 100 µM | SK-MEL-28 > 100 µM | SN12C > 100 µM | SNB-75 > 100 µM | UO-31 > 100 µM

ON=C1CCCCC(=NO)CCCC1
inactive: OVCAR-8 > 100 µM | NCI-H226 > 100 µM | MDA-N > 100 µM | HCC 2998 > 100 µM | DU-145 > 100 µM | U-251 > 100 µM | SF-539 > 100 µM | SF-268 > 100 µM | MDA-MB-231 > 100 µM | 786-0 > 100 µM | SK-MEL-28 > 100 µM | SN12C > 100 µM | SNB-75 > 100 µM | UO-31 > 100 µM

CN(C)C1(N(C)C)Oc2c(c(=O)n(C)c(=O)n2C)C(c2ccccc2Br)C1(F)F (stereo not given)
inactive: NCI-H226 > 100 µM | EKVX > 100 µM | HCC 2998 > 100 µM | DU-145 > 100 µM | U-251 > 100 µM | CCRF-CEM > 100 µM | SF-539 > 100 µM | SF-268 > 100 µM | MDA-MB-231 > 100 µM | 786-0 > 100 µM | SK-MEL-28 > 100 µM | SNB-75 > 100 µM | UO-31 > 100 µM

COC(=O)c1c(C)cccc1C1CN=NC12Cc1cc(C)c(C)cc1C2=O (stereo not given)
inactive: OVCAR-8 78.7 µM | NCI-H226 47.9 µM | EKVX 59.6 µM | MDA-N 25.6 µM | HL-60 17.5 µM | HCC 2998 > 100 µM | DU-145 > 100 µM | IGROV-1 > 100 µM | U-251 41.6 µM | CCRF-CEM 37.8 µM | SF-539 > 100 µM | SF-268 66.5 µM | MDA-MB-231 65.9 µM | 786-0 62.4 µM | SK-MEL-28 > 100 µM | SN12C 75.3 µM | SNB-75 38.1 µM | UO-31 31.6 µM

Cc1cn(C(=O)NC23CC4CC(CC(C4)C2)C3)c(=O)[nH]c1=O
inactive: OVCAR-8 32.7 µM | NCI-H226 24.9 µM | EKVX 23.9 µM | MDA-N 13.2 µM | HL-60 26.4 µM | HCC 2998 50.4 µM | DU-145 > 100 µM | U-251 43.5 µM | CCRF-CEM 25.6 µM | SF-539 46.2 µM | SF-268 37.5 µM | MDA-MB-231 24.7 µM | 786-0 37.2 µM | SK-MEL-28 67.5 µM | SN12C 25.4 µM | SNB-75 31.7 µM | UO-31 69.5 µM

Cc1cc(C)nc(NC(P(=O)(O)O)P(=O)(O)O)n1
inactive: OVCAR-8 > 100 µM | NCI-H226 > 100 µM | EKVX > 100 µM | MDA-N > 100 µM | HCC 2998 > 100 µM | DU-145 > 100 µM | IGROV-1 > 100 µM | SF-539 > 100 µM | SF-268 > 100 µM | MDA-MB-231 > 100 µM | 786-0 > 100 µM | UO-31 > 100 µM

C[C@H]1[C@H](C)CC[C@]2(C)CC[C@]3(C)C(=C[C@@H](O)[C@@H]4[C@@]5(C)[C@H](O)[C@@H](O)[C@H](O)C(C)(C)[C@@H]5CC[C@]43C)[C@H]12
inactive: OVCAR-8 > 100 µM | MDA-N > 100 µM | SR > 100 µM | HL-60 > 100 µM | DU-145 > 100 µM | IGROV-1 67.8 µM | U-251 > 100 µM | CCRF-CEM > 100 µM | SF-539 > 100 µM | SF-268 > 100 µM | MDA-MB-231 > 100 µM | 786-0 > 100 µM | SN12C > 100 µM | UO-31 > 100 µM
